Laboratory results as given in a melting point compilation (Tetko et al.; mined from patent text by program, amines drawn as free bases though some values may be those of a salt).

SMILES	melting point
Cc1cnc(CCCC#N)c(N)c1	84 to 87 °C
CC(CCCC(=O)O)NC(=O)C(C)S (stereo not drawn)	78 to 79 °C
O=C(O)CN1C(=O)C(=Cc2cc(Cl)ccc2O)SC1=S	243 to 247 °C
COc1ccccc1NC(=O)c1nc2c(s1)CN(C)CC2	196 to 198 °C
CN(Cc1cc2c(=O)c(C(=O)NCc3ccc(Cl)cc3)cn(C)c2o1)CC(O)c1cc2ccccc2o1 (stereo not drawn)	176 to 179 °C
CC(=O)OC(CCc1cc(C(C)(C)C)c(O)c(C(C)(C)C)c1)CCc1cc(C(C)(C)C)c(O)c(C(C)(C)C)c1	82 to 85 °C
C=CCn1cc(C(=O)O)c(=O)c2cc(F)c(F)c(F)c21	194 to 197 °C
CCc1noc(C)c1-c1[nH]c2ccccc2c1C(=O)C(=O)N(C)C	212 to 215 °C
COC(=O)c1ccc(OCCNC(=O)C2Cc3ccccc3N2S(=O)(=O)c2ccc(-c3cccc(C(F)(F)F)c3)cc2)cc1C(F)(F)F (stereo not drawn)	75 to 79 °C
CC(=O)NCC(O)(Cn1cncn1)c1ccc(Cl)cc1Cl (stereo not drawn)	178 to 179 °C
Cc1ccc2c(=O)cc(C#N)oc2c1	155 to 156 °C
Nc1ccc2c3c(cccc13)C(=O)N(C1CCN(Cc3ccccc3)CC1)C2=O	226 to 228 °C
CC12CCC3c4ccc(O)c([N+](=O)[O-])c4CCC3C1CCC2=O (stereo not drawn)	> 250 °C
Nc1cc(-n2cc(C(=O)O)c(=O)c3cc(F)c(NCCO)c(Cl)c32)c(F)cc1F	215 to 219 °C
Cc1cccc(COc2cccnc2NC(=N)Nc2ccc(Cl)cc2)c1F	179 to 181 °C
COc1cc(CNC(=O)c2oc(=O)c3ncccc3c2-c2ccc(C)cc2)cc(OC)c1	154 to 155 °C
O=C(CN1CCC(Cc2ccc(F)cc2)CC1)Nc1ccc2[nH]c(=S)[nH]c2c1	266 to 268 °C
c1ccc(CC2CNCCN2)cc1 (racemic)	80 to 81 °C
COC(=O)Cc1ccc(N)c(O)c1	112 to 114 °C
CCOC(=O)c1cc(NC(=O)C2=C(CC)OCCS2)ccc1Cl	86 to 88 °C
CN(C)c1cc(CO)ncc1F	80 to 82 °C
O=C(O)CNC(=O)C=C(c1ccc(Cl)cc1)c1ccc(Cl)cc1	166 to 168 °C
CCn1nc(-c2ccc(F)cc2)c(-c2ccc(S(C)(=O)=O)cc2)cc1=O	177 to 179 °C
Cc1sc2ncc(C(=O)/C=C/c3ccccc3)n2c1C	189 to 190 °C

SMILES	melting point
O=C(O)CN(CC(=O)O)c1nc(N(CC(=O)O)CC(=O)O)nc(N(CC(=O)O)CC(=O)O)n1	246 to 249 °C
Clc1ccc(-c2nc3n(c2Br)CCS3)c(Cl)c1	200 to 202 °C
CCCCCCCCCCc1nnn(C(C(=O)O)c2ccccc2)n1 (stereo not drawn)	62 to 64 °C
CCOC(=Nc1cccc(C(F)(F)F)c1)C(C)C	95 to 100 °C
CN(C(=O)c1cnn(C)c1C(=O)Nc1ccc2nc(-c3cccnc3)nn2c1)C1CC1	237 °C
S=C(NCCN(Cc1ccc(Cl)c(Cl)c1)c1ccc(Br)cn1)Nc1ccc2nn[nH]c2c1	190 to 192 °C
CC(C)CC(NC(=O)c1ccc(F)cc1SSc1cc(F)ccc1C(=O)NC(CC(C)C)C(=O)O)C(=O)O (stereo not drawn)	261 to 262 °C
CCCc1nc(S)nc(O)c1Cc1ccc(-c2ccccc2C#N)cc1	191 °C
CC(C)C[C@H](NC(=O)[C@H](Cc1ccccc1)NC(=O)CCC(=O)O)C(=O)O	156 to 158 °C
Cc1ccc(-c2cc(Cl)c3ccc(C)cc3n2)cc1	110 to 111 °C
CCC(=O)N1N=C(c2ccc([N+](=O)[O-])c(C)c2)c2cc3c(cc2CC1C)OCO3 (stereo not drawn)	172 to 175 °C
CCOC(=O)NC(=N)c1ccc(-n2cc(C)n(-c3ccc(CCC(=O)OC)cc3)c2=O)cc1	198 to 199 °C
CCCCNc1c(C(C)=O)cnc2onc(C)c12	116 to 117 °C
O=C1NC(=O)C(Cc2ccc(S(=O)(=O)CCc3ccccc3)cc2)S1 (stereo not drawn)	201 to 203 °C
COC(=O)N1C=C(C=O)CC([C@@H]2CCCN2C)=C1	78 to 80 °C
O=C(c1ccccc1Cl)c1ccccc1I	62 to 64 °C
COc1c(-c2cc3c(s2)CCC(CO)=C3)ccc2c(=O)c(C(=O)O)cn(C3CC3)c12	205 to 206 °C
CSC(SC)=C1CCC2CC=CC=C2C1=O (stereo not drawn)	54 to 56 °C
Cc1onc(-c2ccccc2)c1-c1[nH]c2ccccc2c1CCCN(C)C	156 to 157 °C
COc1cc(OC)nc(NC(=O)NS(=O)(=O)c2cccnc2-n2cncn2)n1	226 to 230 °C
O=C1NC(=O)C(c2ccc(NC(=O)c3ccccc3)cc2)S1 (stereo not drawn)	240 to 245 °C
CN(C)CCNC1=CC(=O)c2nc(-c3cc(F)ccc3F)oc2C1=O	162 to 163 °C
COc1ccccc1-n1c(=O)[nH]c2c(C(N)=O)nc(-c3cccc(N)c3)nc21	284 to 285 °C
N#CC(C#N)=CN(N=C(C#N)C#N)c1ccc(Br)cc1	191 to 192 °C
